How the values were obtained:
Assay in all cases: KAM-matrix competition in K562 lysate;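 on 0.001 uM KAM: median log10 fold change of treatment over DMSO control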;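 on 0.01 uM KAM: median log10 fold change of treatment over DMSO control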;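 on 0.1 uM KAM: median log10 fold change of treatment over DMSO control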;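 on 1 uM KAM: median log10 fold change of treatment over DMSO control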;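 on 10 uM KAM: median log10 fold change of treatment over DMSO control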
Format in all cases: binding
[1] = target: T1, MARK4 (Homo sapiens, UniProt Q96L34)
T1 construct: K562 cell pellets were thawed on ice and resuspended in cold Lysis buffer; endogenous in cells; host or cells: K562
T1 sequence (Q96L34 1-752): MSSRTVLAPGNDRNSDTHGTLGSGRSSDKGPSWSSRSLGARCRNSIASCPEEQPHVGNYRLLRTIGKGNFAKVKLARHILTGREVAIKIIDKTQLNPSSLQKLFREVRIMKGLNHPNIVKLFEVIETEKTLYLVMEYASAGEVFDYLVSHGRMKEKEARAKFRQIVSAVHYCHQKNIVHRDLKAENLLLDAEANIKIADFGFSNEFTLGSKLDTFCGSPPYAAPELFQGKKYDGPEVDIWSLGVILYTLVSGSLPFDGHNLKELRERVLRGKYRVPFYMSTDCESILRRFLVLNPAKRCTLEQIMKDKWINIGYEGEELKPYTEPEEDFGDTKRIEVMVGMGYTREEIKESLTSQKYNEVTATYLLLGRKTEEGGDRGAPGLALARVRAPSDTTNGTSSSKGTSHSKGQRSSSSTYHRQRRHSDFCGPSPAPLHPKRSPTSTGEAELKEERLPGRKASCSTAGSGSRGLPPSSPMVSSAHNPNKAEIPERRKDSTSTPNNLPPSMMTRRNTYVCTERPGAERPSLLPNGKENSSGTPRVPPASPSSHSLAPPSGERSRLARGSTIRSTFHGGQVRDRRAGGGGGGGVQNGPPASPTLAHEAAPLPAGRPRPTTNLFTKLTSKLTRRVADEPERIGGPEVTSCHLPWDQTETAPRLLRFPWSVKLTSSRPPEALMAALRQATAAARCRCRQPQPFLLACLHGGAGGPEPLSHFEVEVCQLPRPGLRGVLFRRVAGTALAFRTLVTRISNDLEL
Experimental: (§1) Supplement 12953_2017_125_MOESM1_ESM.zip/MS_Supp Info.xlsx, sheet "KAM" | column: 10 uM KAM; 1 uM KAM; 0.1 uM KAM; 0.01 uM KAM; 0.001 uM KAM; RB50

[2] = target: T2, TTN (Homo sapiens, UniProt Q8WZ42);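 on 0.001 uM KAM: median log10 fold change of treatment over DMSO control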;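 on 0.01 uM KAM: median log10 fold change of treatment over DMSO control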;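 on 0.1 uM KAM: median log10 fold change of treatment over DMSO control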;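 on 1 uM KAM: median log10 fold change of treatment over DMSO control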;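 on 10 uM KAM: median log10 fold change of treatment over DMSO control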
T2 construct: endogenous in cells; host or cells: K562
Experimental: as §1

[3] = target: T3, CDC7 (Homo sapiens, UniProt O00311);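 on 0.001 uM KAM: median log10 fold change of treatment over DMSO control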;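 on 0.01 uM KAM: median log10 fold change of treatment over DMSO control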;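 on 0.1 uM KAM: median log10 fold change of treatment over DMSO control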;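 on 1 uM KAM: median log10 fold change of treatment over DMSO control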;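 on 10 uM KAM: median log10 fold change of treatment over DMSO control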
T3 construct: endogenous in cells; host or cells: K562 lysate
Experimental: as §1

[4] = target: T4, SMG1 (Homo sapiens, UniProt Q96Q15);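 on 0.001 uM KAM: median log10 fold change of treatment over DMSO control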;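 on 0.01 uM KAM: median log10 fold change of treatment over DMSO control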;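 on 0.1 uM KAM: median log10 fold change of treatment over DMSO control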;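 on 1 uM KAM: median log10 fold change of treatment over DMSO control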;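 on 10 uM KAM: median log10 fold change of treatment over DMSO control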
T4 construct: endogenous in cells; host or cells: K562
Experimental: as §1

[5] = target: T5, SRC (Homo sapiens, UniProt P12931)
T5 construct: endogenous in cells; host or cells: K562
Experimental: as §1

[6] = target: T6, DDR1 (Homo sapiens, UniProt Q08345)
T6 construct: endogenous in cells; host or cells: K562
Experimental: as §1

[7] = target: T7, PAK2 (Homo sapiens, UniProt Q13177);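 on 0.001 uM KAM: median log10 fold change of treatment over DMSO control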;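 on 0.01 uM KAM: median log10 fold change of treatment over DMSO control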;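 on 0.1 uM KAM: median log10 fold change of treatment over DMSO control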;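 on 1 uM KAM: median log10 fold change of treatment over DMSO control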;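 on 10 uM KAM: median log10 fold change of treatment over DMSO control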
T7 construct: endogenous in cells; host or cells: K562
Experimental: as §1

[8] = target: T8, BMPR2 (Homo sapiens, UniProt Q13873);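 on 0.001 uM KAM: median log10 fold change of treatment over DMSO control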;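 on 0.01 uM KAM: median log10 fold change of treatment over DMSO control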;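 on 0.1 uM KAM: median log10 fold change of treatment over DMSO control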;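 on 1 uM KAM: median log10 fold change of treatment over DMSO control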;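 on 10 uM KAM: median log10 fold change of treatment over DMSO control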
T8 construct: endogenous in cells; host or cells: K562
T8 sequence (Q13873 27-1038): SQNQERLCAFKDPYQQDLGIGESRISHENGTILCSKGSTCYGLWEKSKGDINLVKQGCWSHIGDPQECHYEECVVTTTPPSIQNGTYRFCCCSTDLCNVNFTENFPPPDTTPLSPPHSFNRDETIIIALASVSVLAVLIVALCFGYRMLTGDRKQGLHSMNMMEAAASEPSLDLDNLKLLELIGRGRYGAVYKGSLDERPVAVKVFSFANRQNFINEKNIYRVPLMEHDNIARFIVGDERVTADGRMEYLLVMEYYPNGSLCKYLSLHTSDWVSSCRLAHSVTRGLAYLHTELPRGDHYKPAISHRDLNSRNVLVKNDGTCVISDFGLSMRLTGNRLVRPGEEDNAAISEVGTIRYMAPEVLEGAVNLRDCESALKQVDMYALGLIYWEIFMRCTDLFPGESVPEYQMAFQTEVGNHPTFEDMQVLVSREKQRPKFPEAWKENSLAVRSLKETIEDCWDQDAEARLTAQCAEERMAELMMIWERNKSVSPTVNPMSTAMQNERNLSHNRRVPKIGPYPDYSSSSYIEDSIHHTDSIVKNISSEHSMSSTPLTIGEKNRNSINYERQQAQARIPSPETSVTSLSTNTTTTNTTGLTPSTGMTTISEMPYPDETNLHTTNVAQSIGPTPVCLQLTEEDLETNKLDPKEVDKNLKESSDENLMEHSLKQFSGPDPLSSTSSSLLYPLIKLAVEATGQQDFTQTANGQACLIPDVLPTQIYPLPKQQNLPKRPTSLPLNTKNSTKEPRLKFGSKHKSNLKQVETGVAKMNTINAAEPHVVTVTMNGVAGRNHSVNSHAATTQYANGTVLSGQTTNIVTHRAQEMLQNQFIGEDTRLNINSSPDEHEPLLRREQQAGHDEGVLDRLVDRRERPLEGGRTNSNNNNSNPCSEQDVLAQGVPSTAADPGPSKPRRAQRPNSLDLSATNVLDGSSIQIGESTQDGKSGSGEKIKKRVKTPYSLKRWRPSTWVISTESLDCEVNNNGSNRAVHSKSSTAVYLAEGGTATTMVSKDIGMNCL
Experimental: as §1

[9] = read-out: RB50 (the source's name)
[10] = KAM 0.001-10 uM, read-out: RB50 (the source's name)

## N#CCc1ccc(Nc2nc(NCCCN)cc(Nc3cc(C4CC4)[nH]n3)n2)cc1 [KAM]
[1]; 0.001 uM KAM
  median Log10 fold change: -0.09809
[1]; 0.01 uM KAM
  median Log10 fold change: -0.06359
[1]; 0.1 uM KAM
  median Log10 fold change: -0.2055
[1]; 1 uM KAM
  median Log10 fold change: -0.3566
[1]; 10 uM KAM
  median Log10 fold change: -0.4457
[1]; [9]
  IC50: 0.604 µM
[2]; [10]
  IC50: > 10 µM
[2]; relative to 0 uM KAM = 0
  0.001 uM KAM: -0.03178
  0.01 uM KAM: 0.01596
  0.1 uM KAM: -0.008464
  1 uM KAM: 0.03427
  10 uM KAM: 0.01084
[3]; [10]
  IC50: > 10 µM
[3]; relative to 0 uM KAM = 0
  0.001 uM KAM: -0.007298
  0.01 uM KAM: -0.03198
  0.1 uM KAM: -0.1182
  1 uM KAM: -0.2032
  10 uM KAM: -0.1853
[4]; [10]
  IC50: > 10 µM
[4]; relative to 0 uM KAM = 0
  0.001 uM KAM: -0.09325
  0.01 uM KAM: 0.027
  0.1 uM KAM: 0.0044
  1 uM KAM: 0.06163
  10 uM KAM: 0.05027
[5]; 0.001 uM KAM
  median Log10 fold change: -0.003111
[5]; 0.01 uM KAM
  median Log10 fold change: -0.02243
[5]; 0.1 uM KAM
  median Log10 fold change: -0.1125
[5]; 1 uM KAM
  median Log10 fold change: -0.3083
[5]; 10 uM KAM
  median Log10 fold change: -0.5006
[5]; [9]
  IC50: 1.1 µM
[6]; 0.001 uM KAM
  median Log10 fold change: -0.02436
[6]; 0.01 uM KAM
  median Log10 fold change: -0.004539
[6]; 0.1 uM KAM
  median Log10 fold change: -0.13
[6]; 1 uM KAM
  median Log10 fold change: -0.3025
[6]; 10 uM KAM
  median Log10 fold change: -0.3889
[6]; [9]
  IC50: 1.33 µM
[7]; [10]
  IC50: > 10 µM
[7]; relative to 0 uM KAM = 0
  0.001 uM KAM: 0.07363
  0.01 uM KAM: 0.03748
  0.1 uM KAM: 0.116
  1 uM KAM: 0.1461
  10 uM KAM: 0.07777
[8]; [10]
  IC50: 6.67 µM
[8]; relative to 0 uM KAM = 0
  0.001 uM KAM: 0.0006826
  0.01 uM KAM: -0.02948
  0.1 uM KAM: -0.09644
  1 uM KAM: -0.1591
  10 uM KAM: -0.3053

Source: article PMC5513037, “Examining the influence of specificity ligands and ATP-competitive ligands on the overall effectiveness of bivalent kinase inhibitors” (Proteome Science, 2017)
